The values below come from US20100160335A1, “PYRIDAZINONE DERIVATIVE AND PDE INHIBITOR CONTAINING THE SAME AS ACTIVE INGREDIENT” (KYORIN PHARMACEUTICAL CO., LTD., priority 2007, published 2010).

Where two headings read alike, the source gives them in different places.

For test [1], the target named is T1, PDE3A catalytic domain (PDE3Acat) (Homo sapiens, UniProt Q14432).
T1 construct: made in house; host or cells: Sf9 insect cells (baculovirus, Bac-to-Bac / Gateway)
The test is described as follows: Phosphodiesterase inhibitory activity, PDE3 ([3H]cAMP, recombinant enzyme). The class given is biochemical. The following applies: 30° C., 20 minutes, read-out: IC50(μmol/L) PDE3.

Test [2] deals with T2, PDE4Bcat (Homo sapiens, UniProt Q07343).
T2 construct: made in house; host or cells: Sf9 insect cells (baculovirus, Bac-to-Bac / Gateway)
The test is described as follows: Phosphodiesterase inhibitory activity, PDE4 ([3H]cAMP, recombinant enzyme). Type of test: biochemical. The settings on record: 30° C., 20 minutes, read-out: IC50(μmol/L) PDE4.

Test [3] relates to histamine-induced bronchoconstriction in guinea pigs. Kind of test: Histamine-induced bronchoconstriction reaction in guinea pigs. Type of test: in vivo. The following applies: Cavia porcellus, iv, 0.5 min, guinea pig, measured 30 seconds after administration, read-out: Inhibition rate (histamine-induced bronchoconstriction); for inhibition in vivo at 0.3 mg/kg: compound 0.3 mg/kg, i.v.; for inhibition in vivo at 0.1 mg/kg: compound 0.1 mg/kg, i.v. (values in [ ]). Here is the method: Guinea pigs were anesthetized with pentobarbital (30 mg/kg, i.p.). A cannula for intravenous administration was inserted into the left external jugular vein, a cannula for collecting blood and measuring blood pressure was inserted into the right internal carotid artery, and a tracheal cannula was inserted into the trachea. The guinea pigs were maintained on artificial respiration under the conditions of 60 times/min and 10 mL/kg/stroke. The airflow from the side branch of the tracheal cannula was measured by a bronchospasm transducer (Ugo-Basile) and recorded on a computer via Power Lab (ADInstruments Japan). The guinea pigs were immobilized with gallamine (10 mg/kg, i.v.), and histamine (12.5 μg/kg, i.v.) was administered at 10-minute intervals. After the histamine-induced bronchoconstriction became stable, the compound (0.3 mg/kg, i.v.) was administered. The histamine-induced bronchoconstriction reaction was measured 30 seconds after the compound administration to examine the bronchoconstriction inhibitory activity of the compound. The bronchoconstriction was recorded as the airflow value, and the results were represented by the ratio of the maximum value of the histamine- induced airflow 30 seconds after the administration to the maximum value of the airflow before the administration. Also, the test compounds dissolved in DMSO were used. Further, the indications were as follows: inhibition rate≧90% (+++), 90%>inhibition rate≧80% (++), and 80%>inhibition rate≧70% (+). [ ] means the results in the case of 0.1 mg/kg, i.v.

The test system of test [4] is LPS acute inflammation model in rats. Kind of test: LPS acute inflammation model in rats (total leukocytes in BALF). The settings on record: BALF 3 hours after LPS; for Inhibition rate (total number of leukocytes in BALF): rat; for inhibition in vivo at 1 mg/kg: Rattus norvegicus, Leukocyte, po, 3 h, read-out: Inhibition rate (total number of leukocytes in BALF). The class given is in vivo. The protocol:
1 mg/kg of the compound was orally administered to rat one hour before inhalation of a lipopolysaccharide from E. coli serotype 055:B5 (LPS), and the rat was made to inhale 50 mL of the LPS solution nebulized using a nebulizer for 30 minutes. Then, 3 hours after the LPS inhalation, the rat was euthanized with 20% urethane (5 ml/rat, i.p.). 5 ml of physiological saline for bronchoalveolar lavage was injected into the bronchial tubes and alveoli through the airway, and the bronchial tubes and alveoli were washed three times using a 5 mL syringe. This operation was repeated twice, and the solution was collected as bronchoalveolar lavage fluid (BALF). The collected BALF was centrifuged at 1200 rpm and 4° C. for 10 minutes (Hirtachi; himac CR 5 DL). The pellet was re-suspended in 10 mL of a 0.1% bovine serum albumin-physiological saline, and an equivalent amount of Turk's solution was added thereto to stain leukocytes. The total number of leukocytes was counted under a microscope to calculate the inhibition rate. Further, the indications were as follows: inhibition rate≧90% (++) and 90%>inhibition rate≧50% (+). [ ] means the results of the drug administration after fasting overnight.

Setting [5] is: 1 mg/kg orally one hour before LPS inhalation.
Where [6] appears, read: 1 mg/kg orally after fasting overnight (values in [ ]), one hour before LPS inhalation, 1 mg/kg.
The mark [7] stands for this setting: 1 mg/kg orally after fasting overnight (values in [ ]), one hour before LPS inhalation.

T2 sequence (Q07343 330-659 limits assumed): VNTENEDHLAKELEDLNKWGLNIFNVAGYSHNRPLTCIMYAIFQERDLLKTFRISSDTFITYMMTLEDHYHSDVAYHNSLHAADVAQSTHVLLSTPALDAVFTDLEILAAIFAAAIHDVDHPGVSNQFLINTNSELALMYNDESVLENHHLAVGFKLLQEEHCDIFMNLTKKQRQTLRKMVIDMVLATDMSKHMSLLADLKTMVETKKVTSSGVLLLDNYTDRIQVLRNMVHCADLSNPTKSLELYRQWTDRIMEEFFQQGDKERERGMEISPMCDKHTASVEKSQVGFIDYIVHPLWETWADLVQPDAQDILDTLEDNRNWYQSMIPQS
T1 sequence (Q14432 674-1093 limits assumed): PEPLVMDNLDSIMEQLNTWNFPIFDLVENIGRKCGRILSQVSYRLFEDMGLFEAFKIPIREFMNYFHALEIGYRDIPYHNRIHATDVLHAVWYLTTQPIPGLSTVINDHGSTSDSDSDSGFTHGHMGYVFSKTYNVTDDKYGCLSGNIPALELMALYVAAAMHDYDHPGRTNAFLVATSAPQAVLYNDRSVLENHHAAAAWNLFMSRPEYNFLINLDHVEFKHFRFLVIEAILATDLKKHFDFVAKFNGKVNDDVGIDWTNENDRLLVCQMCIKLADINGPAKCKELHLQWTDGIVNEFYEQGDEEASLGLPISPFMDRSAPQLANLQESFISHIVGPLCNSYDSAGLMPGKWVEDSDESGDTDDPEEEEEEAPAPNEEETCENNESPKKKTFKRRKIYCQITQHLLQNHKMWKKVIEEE

As to `CCc1ccc2c(C3=NN(CCCCOc4ccc(C5=NNC(=O)CC5C)cc4)C(=O)CC3C)ccc(OC)c2n1` (single isomer, unassigned) [Example 340, 6-(2-Ethyl-8-methoxyquinolin-5-yl)-5-methyl-2-[4-[4-(4-methyl-6-oxo-1,4,5,6-tetrahydropyridazin-3-yl)phenoxy]butyl]-4,5-dihydro-2H-pyridazin-3-one], the IC50 in test [1] and in test [2] was < 0.1 µmol/L each time. In addition, in test [3], the inhibition in vivo at 0.3 mg/kg was ≥ 90%. Besides, in test [4] (setting [5]), the “Inhibition rate (total number of leukocytes in BALF)” value (from here on “Inhibition rate”) is “+ (90%>inhibition rate≧50% (+))”.
For `CCc1ccc2c(-c3ccc(=O)n(CCCCOc4ccc(C5=NNC(=O)CC5C)c(F)c4F)n3)ccc(OC)c2n1` (single isomer, unassigned; (-)) [Example 323, (−)-6-(2-ethyl-8-methoxyquinolin-5-yl)-2-[4-[2,3-difluoro-4-(4-methyl-6-oxo-1,4,5,6-tetrahydropyridazin-3-yl)phenoxy]butyl]-2H-pyridazin-3-one], the IC50 in test [1] and in test [2] was < 0.1 µmol/L throughout. The inhibition in vivo at 0.3 mg/kg in test [3] lay in the range of 70 to 80%. In addition, in test [4] (setting [6]), the “Inhibition rate” value was “[++] (inhibition rate≧90% (++))”.
Turning to `COc1ccc(-c2ccc(=O)n(CCCCOc3ccc(C4=NNC(=O)CC4)c(F)c3F)n2)c2cccnc12` [Example 320, 2-[4-[2,3-Difluoro-4-(6-oxo-1,4,5,6-tetrahydropyridazin-3-yl)phenoxy]butyl]-6-(8-methoxyquinolin-5-yl)-2H-pyridazin-3-one], the IC50 in test [1] and in test [2] was < 0.1 µmol/L each time. In addition, the inhibition in vivo at 0.3 mg/kg in test [3] is ≥ 90%. The inhibition in vivo at 1 mg/kg in test [4] (setting [7]) fell in the range of 50 to 90%.
As to `COc1ccc(-c2ccc(=O)n(CCCCOc3ccc(C4=NNC(=O)CC4)c(F)c3F)n2)c2ccc(C)nc12` [Example 271, 2-[4-[2,3-Difluoro-4-(6-oxo-1,4,5,6-tetrahydropyridazin-3-yl)phenoxy]butyl]-6-(8-methoxy-2-methylquinolin-5-yl)-2H-pyridazin-3-one], the IC50 in test [1] and in test [2] was < 0.1 µmol/L each time. In test [3], the inhibition in vivo at 0.3 mg/kg was ≥ 90%. Besides, the inhibition in vivo at 1 mg/kg in test [4] (setting [7]) lay in the range of 50 to 90%.
Turning to `CCc1ccc2c(-c3ccc(=O)n(CCCCOc4ccc(C5=NNC(=O)CC5)c(F)c4F)n3)ccc(OC)c2n1` [Example 283, 6-(2-Ethyl-8-methoxyquinolin-5-yl)-2-[4-[2,3-difluoro-4-(6-oxo-1,4,5,6-tetrahydropyridazin-3-yl)phenoxy]butyl]-2H-pyridazin-3-one], the values for the IC50 in test [1] and in test [2] were < 0.1 µmol/L and 0.1 to 1 µmol/L, respectively. Further, in test [4] (setting [7]), the inhibition in vivo at 1 mg/kg is ≥ 90%.
As to `CCc1ccc2c(C3=NN(CCCCOc4ccc(C5=NNC(=O)CC5C)cc4)C(=O)CC3C)ccc(OC)c2n1` (stereo not drawn) [Example 312, 6-(2-Ethyl-8-methoxyquinolin-5-yl)-5-methyl-2-[4-[4-(4-methyl-6-oxo-1,4,5,6-tetrahydropyridazin-3-yl)phenoxy]butyl]-4,5-dihydro-2H-pyridazin-3-one], the IC50 is 0.1 to 1 µmol/L in test [1] and < 0.1 µmol/L in test [2]. For the same compound, the inhibition in vivo at 0.1 mg/kg in test [3] fell in the range of 70 to 80%. Further, in test [4] (setting [5]), the inhibition in vivo at 1 mg/kg is 50 to 90%.
Consider `COc1ccc(-c2ccc(=O)n(CCCCOc3ccc(C4=NNC(=O)CC4C)c(F)c3F)n2)c2cccnc12` (stereo not drawn) [Example 319, 2-[4-[2,3-Difluoro-4-(4-methyl-6-oxo-1,4,5,6-tetrahydropyridazin-3-yl)phenoxy]butyl]-6-(8-methoxyquinolin-5-yl)-2H-pyridazin-3-one], for which the IC50 was < 0.1 µmol/L in test [1] and 0.1 to 1 µmol/L in test [2]. Moreover, the inhibition in vivo at 0.1 mg/kg in test [3] is ≥ 90%. Further, the inhibition in vivo at 1 mg/kg in test [4] (setting [7]) fell in the range of 50 to 90%.
Turning to `CCc1ccc2c(C3=NN(CCCCOc4ccc(C5=NNC(=O)CC5C)cc4)C(=O)CC3C)ccc(OC)c2n1` (single isomer, unassigned) [Example 339, 6-(2-Ethyl-8-methoxyquinolin-5-yl)-5-methyl-2-[4-[4-(4-methyl-6-oxo-1,4,5,6-tetrahydropyridazin-3-yl)phenoxy]butyl]-4,5-dihydro-2H-pyridazin-3-one], the IC50 in test [1] is 1 to 10 µmol/L; in test [2] it was < 0.1 µmol/L. Moreover, the inhibition in vivo at 1 mg/kg in test [4] (setting [5]) was 50 to 90%.
As to `CCc1ccc2c(C3=NN(CCCCOc4ccc(C5=NNC(=O)CC5C)cc4F)C(=O)CC3C)ccc(OC)c2n1` (stereo not drawn) [Example 294, 6-(2-Ethyl-8-methoxyquinolin-5-yl)-5-methyl-2-[4-[2-fluoro-4-(4-methyl-6-oxo-1,4,5,6-tetrahydropyridazin-3-yl)phenoxy]butyl]-4,5-dihydro-2H-pyridazin-3-one], the IC50 in test [1] and in test [2] was < 0.1 µmol/L each time. Besides, in test [3], the inhibition in vivo at 0.1 mg/kg is ≥ 90%.
On to `CCc1ccc2c(C3=NN(CCOc4ccc(C5=NNC(=O)CC5C)cc4)C(=O)CC3C)ccc(OC)c2n1` (stereo not drawn) [Example 315, 6-(2-Ethyl-8-methoxyquinolin-5-yl)-5-methyl-2-[2-[4-(4-methyl-6-oxo-1,4,5,6-tetrahydropyridazin-3-yl)phenoxy]ethyl]-4,5-dihydro-2H-pyridazin-3-one], for which the IC50 is 1 to 10 µmol/L in test [1] and < 0.1 µmol/L in test [2]. Moreover, the inhibition in vivo at 0.3 mg/kg in test [3] is 70 to 80%.
Take `CCc1ccc2c(C3=NN(CCCCOc4ccc(C5=NNC(=O)CC5)cc4F)C(=O)CC3C)ccc(OC)c2n1` (stereo not drawn) [Example 298, 6-(2-Ethyl-8-methoxyquinolin-5-yl)-5-methyl-2-[4-[2-fluoro-4-(6-oxo-1,4,5,6-tetrahydropyridazin-3-yl)phenoxy]butyl]-4,5-dihydro-2H-pyridazin-3-one]: the IC50 in test [1] and in test [2] was < 0.1 µmol/L each time. For the same compound, in test [3], the inhibition in vivo at 0.1 mg/kg was ≥ 90%.
`CCc1ccc2c(-c3ccc(=O)n(CCCCOc4ccc(C5=NNC(=O)CC5C)c(F)c4F)n3)ccc(OC)c2n1` (single isomer, unassigned; (+)) [Example 322, (+)-6-(2-ethyl-8-methoxyquinolin-5-yl)-2-[4-[2,3-difluoro-4-(4-methyl-6-oxo-1,4,5,6-tetrahydropyridazin-3-yl)phenoxy]butyl]-2H-pyridazin-3-one]: the IC50 in test [1] and in test [2] was < 0.1 µmol/L throughout. In addition, in test [4] (setting [6]), the “Inhibition rate” value was “[+] (90%>inhibition rate≧50% (+))”.
As to `CCc1ccc2c(C3=NN(CCCCOc4ccc(C5=NNC(=O)C5(C)C)c(F)c4F)C(=O)CC3C)ccc(OC)c2n1` (stereo not drawn) [Example 303, 6-(2-Ethyl-8-methoxyquinolin-5-yl)-5-methyl-2-[4-[2,3-difluoro-4-(4,4-dimethyl-5-oxo-4,5-dihydro-1H-pyrazol-3-yl)phenoxy]butyl]-4,5-dihydro-2H-pyridazin-3-one], the results for the IC50 in test [1] and in test [2] were 0.1 to 1 µmol/L and < 0.1 µmol/L, respectively. Moreover, in test [3], the inhibition in vivo at 0.3 mg/kg fell in the range of 80 to 90%.
For `CCc1ccc2c(C3=NN(CCCCOc4ccc(C5=NNC(=O)CC5)cc4OC)C(=O)CC3C)ccc(OC)c2n1` (stereo not drawn) [Example 297, 6-(2-Ethyl-8-methoxyquinolin-5-yl)-5-methyl-2-[4-[2-methoxy-4-(6-oxo-1,4,5,6-tetrahydropyridazin-3-yl)phenoxy]butyl]-4,5-dihydro-2H-pyridazin-3-one], in that order: 1 to 10 µmol/L, 0.1 to 1 µmol/L and ≥ 90%.
